Experimental data taken from ChEMBL document CHEMBL5715954, “Silencing c-Myc translation as a therapeutic strategy through targeting PI3Kδ and CK1ε in hematological malignancies” (Blood, 2017).

Legend:
Parameters in all cases: scale not given: the % may be the effect or the level left
[1] = molecular target: T1, Mitogen-activated protein kinase 15 (Homo sapiens) (UniProt Q8TD08); assay: Inhibition of human ERK7 assessed as enzyme activity at 1 uM using myelin basic protein as substrate preincubated for 20 mins followed by [gamma-33P]-ATP addition and measured after 120 mins by radiometric Hot-SpotSM Kinase assay relative to control
T1 sequence (whole entry): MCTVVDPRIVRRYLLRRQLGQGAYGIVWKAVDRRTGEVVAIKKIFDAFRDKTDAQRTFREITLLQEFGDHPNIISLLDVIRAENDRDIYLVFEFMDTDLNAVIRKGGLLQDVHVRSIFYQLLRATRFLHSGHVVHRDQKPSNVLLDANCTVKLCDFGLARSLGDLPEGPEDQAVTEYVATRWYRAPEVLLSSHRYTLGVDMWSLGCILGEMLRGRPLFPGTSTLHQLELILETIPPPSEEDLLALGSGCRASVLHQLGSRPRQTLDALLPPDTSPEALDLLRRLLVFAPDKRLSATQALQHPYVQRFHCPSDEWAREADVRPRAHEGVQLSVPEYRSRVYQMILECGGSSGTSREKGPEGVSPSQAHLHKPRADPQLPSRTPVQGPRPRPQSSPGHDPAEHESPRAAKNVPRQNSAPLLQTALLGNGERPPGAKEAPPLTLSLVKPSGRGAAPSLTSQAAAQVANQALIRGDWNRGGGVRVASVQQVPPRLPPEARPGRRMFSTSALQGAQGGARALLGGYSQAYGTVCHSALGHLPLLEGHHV

[2] = molecular target: T2, Tyrosine-protein kinase JAK3 (Homo sapiens) (UniProt P52333); assay: Inhibition of human JAK3 assessed as enzyme activity at 1 uM using GGEEEEYFELVKKKK as substrate preincubated for 20 mins followed by [gamma-33P]-ATP addition and measured after 120 mins by radiometric Hot-SpotSM Kinase assay relative to control
T2 sequence (whole entry): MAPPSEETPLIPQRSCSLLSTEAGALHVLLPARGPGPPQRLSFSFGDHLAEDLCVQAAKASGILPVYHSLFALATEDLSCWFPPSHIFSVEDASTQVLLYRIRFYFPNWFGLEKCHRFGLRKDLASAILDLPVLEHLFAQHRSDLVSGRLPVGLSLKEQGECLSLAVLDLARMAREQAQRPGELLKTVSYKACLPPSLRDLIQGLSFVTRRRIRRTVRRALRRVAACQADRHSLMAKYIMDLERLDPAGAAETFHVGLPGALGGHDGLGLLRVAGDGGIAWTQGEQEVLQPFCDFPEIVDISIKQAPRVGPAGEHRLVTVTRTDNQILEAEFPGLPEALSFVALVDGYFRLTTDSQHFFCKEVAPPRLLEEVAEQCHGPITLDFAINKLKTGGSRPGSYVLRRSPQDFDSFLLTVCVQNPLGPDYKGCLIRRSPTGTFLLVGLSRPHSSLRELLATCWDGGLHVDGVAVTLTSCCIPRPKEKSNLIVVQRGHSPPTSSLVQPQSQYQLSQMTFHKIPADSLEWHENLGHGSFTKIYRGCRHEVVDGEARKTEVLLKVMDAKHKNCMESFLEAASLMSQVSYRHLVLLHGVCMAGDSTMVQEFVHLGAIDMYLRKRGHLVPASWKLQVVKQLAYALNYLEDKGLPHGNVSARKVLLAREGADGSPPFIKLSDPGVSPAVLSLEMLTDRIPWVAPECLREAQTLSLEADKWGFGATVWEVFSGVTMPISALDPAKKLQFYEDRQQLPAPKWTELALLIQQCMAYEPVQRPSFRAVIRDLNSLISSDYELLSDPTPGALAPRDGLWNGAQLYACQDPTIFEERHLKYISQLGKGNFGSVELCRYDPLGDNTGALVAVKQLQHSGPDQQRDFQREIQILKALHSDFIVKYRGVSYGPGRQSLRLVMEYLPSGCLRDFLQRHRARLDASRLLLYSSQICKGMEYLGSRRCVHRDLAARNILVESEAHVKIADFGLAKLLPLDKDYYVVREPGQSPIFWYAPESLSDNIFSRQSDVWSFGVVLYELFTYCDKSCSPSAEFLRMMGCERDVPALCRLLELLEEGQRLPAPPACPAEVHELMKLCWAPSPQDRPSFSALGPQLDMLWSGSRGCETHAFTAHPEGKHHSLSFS

[3] = molecular target: LIM domain kinase 2 (Homo sapiens) (UniProt P53671); assay: Inhibition of human LIMK2 assessed as enzyme activity at 1 uM using cofilin 2 as substrate preincubated for 20 mins followed by [gamma-33P]-ATP addition and measured after 120 mins by radiometric Hot-SpotSM Kinase assay relative to control
[4] = molecular target: Mitogen-activated protein kinase kinase kinase 20 (Homo sapiens) (UniProt Q9NYL2); assay: Inhibition of human ZAK/MLTK assessed as enzyme activity at 1 uM using myelin basic protein as substrate preincubated for 20 mins followed by [gamma-33P]-ATP addition and measured after 120 mins by radiometric Hot-SpotSM Kinase assay relative to control
Chain of Mitogen-activated protein kinase kinase kinase 20 (Homo sapiens) (Q9NYL2 2-800 limits assumed): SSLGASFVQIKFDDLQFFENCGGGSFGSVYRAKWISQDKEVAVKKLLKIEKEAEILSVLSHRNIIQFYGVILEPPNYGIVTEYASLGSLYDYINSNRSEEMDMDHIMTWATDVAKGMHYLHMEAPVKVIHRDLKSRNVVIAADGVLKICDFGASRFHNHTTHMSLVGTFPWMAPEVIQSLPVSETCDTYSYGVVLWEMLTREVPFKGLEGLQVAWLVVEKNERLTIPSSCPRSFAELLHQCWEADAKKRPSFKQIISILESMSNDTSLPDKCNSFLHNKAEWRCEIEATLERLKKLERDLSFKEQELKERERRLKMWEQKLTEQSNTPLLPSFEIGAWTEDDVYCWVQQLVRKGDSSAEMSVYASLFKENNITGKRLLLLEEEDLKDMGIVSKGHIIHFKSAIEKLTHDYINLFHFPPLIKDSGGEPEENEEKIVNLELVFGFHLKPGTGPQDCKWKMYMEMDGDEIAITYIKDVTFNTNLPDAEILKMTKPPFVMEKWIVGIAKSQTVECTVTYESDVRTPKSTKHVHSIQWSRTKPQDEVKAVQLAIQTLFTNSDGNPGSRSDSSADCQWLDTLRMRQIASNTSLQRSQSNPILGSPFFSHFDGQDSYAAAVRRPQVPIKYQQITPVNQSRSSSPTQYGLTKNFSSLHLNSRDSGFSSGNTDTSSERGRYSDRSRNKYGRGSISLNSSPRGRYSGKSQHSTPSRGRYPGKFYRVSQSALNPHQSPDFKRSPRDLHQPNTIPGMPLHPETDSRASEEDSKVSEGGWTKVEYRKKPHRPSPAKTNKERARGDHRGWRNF

Chain of LIM domain kinase 2 (Homo sapiens) (P53671 whole entry, looked up, the tested form may be a part): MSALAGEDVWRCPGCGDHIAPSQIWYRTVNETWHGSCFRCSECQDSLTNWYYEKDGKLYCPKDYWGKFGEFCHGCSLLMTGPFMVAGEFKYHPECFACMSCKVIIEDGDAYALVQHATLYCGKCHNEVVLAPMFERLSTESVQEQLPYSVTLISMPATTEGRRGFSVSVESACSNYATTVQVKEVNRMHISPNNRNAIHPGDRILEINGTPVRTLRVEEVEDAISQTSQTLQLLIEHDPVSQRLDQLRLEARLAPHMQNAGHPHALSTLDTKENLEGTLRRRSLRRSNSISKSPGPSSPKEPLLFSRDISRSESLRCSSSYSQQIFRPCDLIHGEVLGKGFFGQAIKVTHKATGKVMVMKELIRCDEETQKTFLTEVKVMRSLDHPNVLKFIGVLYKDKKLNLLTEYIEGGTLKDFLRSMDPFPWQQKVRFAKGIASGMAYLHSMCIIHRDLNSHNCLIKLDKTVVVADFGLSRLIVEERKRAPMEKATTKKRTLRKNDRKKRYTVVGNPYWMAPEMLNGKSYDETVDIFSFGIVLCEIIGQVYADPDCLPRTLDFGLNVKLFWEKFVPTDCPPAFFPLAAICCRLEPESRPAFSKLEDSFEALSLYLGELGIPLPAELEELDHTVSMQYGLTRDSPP

Row | SMILES | Activity [1] [%] | Activity [2] [%] | Activity [3] [%] | Activity [4] [%]
1 | CC[C@H](Nc1ncnc2[nH]cnc12)c1nc2cccc(F)c2c(=O)n1-c1ccccc1 | 94.3 | 94.3 | 96 | 96.5
2 | C[C@H](Nc1ncnc2nc[nH]c12)c1cc2cccc(Cl)c2c(=O)n1-c1ccccc1 | 98.5 | 95.2 | 104 | 88.7
3 | CC(C)Oc1ccc(-c2nn([C@@H](C)c3oc4ccc(F)cc4c(=O)c3-c3cccc(F)c3)c3ncnc(N)c23)cc1F [UMBRALISIB] | 88.3 | 91.2 | 98.6 | 92.3
